Counter-ions that a name gives are not always drawn. Like-named read-outs stand apart in the source and are kept apart here.

The record followed here is paper PMC5681660, “Reduced hepatitis B and D viral entry using clinically applied drugs as novel inhibitors of the bile acid transporter NTCP” (Scientific Reports, 2017).

In assay [1] the target is T1, human NTCP (Homo sapiens, UniProt Q14973).
T1 sequence (Q14973 1-349): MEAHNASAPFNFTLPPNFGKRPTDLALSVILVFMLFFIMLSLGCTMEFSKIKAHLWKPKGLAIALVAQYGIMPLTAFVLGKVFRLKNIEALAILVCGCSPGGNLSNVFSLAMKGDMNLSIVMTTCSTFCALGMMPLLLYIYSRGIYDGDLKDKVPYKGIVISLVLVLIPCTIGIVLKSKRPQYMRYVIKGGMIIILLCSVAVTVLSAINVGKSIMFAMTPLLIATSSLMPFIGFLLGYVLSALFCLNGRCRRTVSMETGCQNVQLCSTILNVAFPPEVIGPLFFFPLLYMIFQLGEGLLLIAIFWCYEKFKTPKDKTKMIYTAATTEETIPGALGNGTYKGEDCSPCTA
Kind of assay: Screening fluorescent competitive Myrcludex B-FITC binding assay (96-well, 10 µM drug).

The target of assay [2] is T1, human NTCP. Kind of assay: Screening taurocholate uptake assay (96-well, [14C]taurocholate, 10 µM drug).
The mark [3] stands for this setting: Prestwick library screen, 10 µM drug, B-score of Myrcludex B-FITC binding.
[4] abbreviates: Prestwick library screen, 10 µM drug, B-score of taurocholate uptake.
Setting [5] is: combined ranking from functional and binding assay B-scores.
[6] abbreviates: Prestwick library screen, Myrcludex B-FITC binding, 10 µM drug.
The mark [7] stands for this setting: Prestwick library screen, taurocholate uptake, 10 µM drug.
Setting [8] is: ranking score beside the functional and binding assay B-scores of the screen.

Compound `c1ccc2c(c1)CCCC2C1=NCCN1` (stereo not drawn) [Tetrahydrozoline hydrochloride] yielded a B-score binding assay in assay [1] (setting [3]) of 1.943. In addition, the B-score functional assay in assay [2] (setting [4]) is recorded as 0.112. For the same compound, the Ranking score in assay [2] (setting [5]) was 952.65.

`CCC(C)n1ncn(-c2ccc(N3CCN(c4ccc(OCC5COC(Cn6cncn6)(c6ccc(Cl)cc6Cl)O5)cc4)CC3)cc2)c1=O` (stereo not drawn) [Itraconazole] registered a B-score binding assay in assay [1] (setting [3]) of 1.124. The compound also gave a B-score functional assay in assay [2] (setting [4]) of 0.058. Further, the Ranking score in assay [2] (setting [5]) is given as 871.813.

`CCCNC(=O)NS(=O)(=O)c1ccc(Cl)cc1` [Chlorpropamide]: the B-score binding assay in assay [1] (setting [6]) is reported as -0.165. In assay [2] (setting [7]), the B-score functional assay is given as 1.589. The Ranking score in assay [2] (setting [8]) is 766.984.

In the case of `CCN(CC)C(=O)Nc1ccc(OCC(O)CNC(C)(C)C)c(C(C)=O)c1` (stereo not drawn) [Celiprolol HCl], the B-score binding assay in assay [1] (setting [3]) was found to be 1.474. The B-score functional assay in assay [2] (setting [4]) came to 0.793. Moreover, the Ranking score in assay [2] (setting [5]) is 1068.26.

Consider `CN1CCN(CCCN2c3ccccc3Sc3ccc(S(=O)(=O)N(C)C)cc32)CC1.CS(=O)(=O)O.CS(=O)(=O)O` [Thioproperazine dimesylate], for which, in assay [1] (setting [3]), the B-score binding assay is reported as 1.771. The compound also came in with a B-score functional assay in assay [2] (setting [4]) of 0.683. Further, the Ranking score in assay [2] (setting [5]) was determined as 1068.06.

Turning to `NNC(=O)c1ccncc1` [Isoniazid], the B-score binding assay in assay [1] (setting [3]) worked out at 1.337. Further, the B-score functional assay in assay [2] (setting [4]) was 1.386. Further, the Ranking score in assay [2] (setting [5]) is 1117.92.

Take `Cc1oncc1C(=O)Nc1ccc(C(F)(F)F)cc1` [Leflunomide]: the B-score binding assay in assay [1] (setting [6]) is recorded as -0.027. This compound had a B-score functional assay in assay [2] (setting [7]) of 0.376. Also, the Ranking score in assay [2] (setting [8]) worked out at 727.533.

`COc1ccc(C[C@@H]2c3cc(OC)c(OC)cc3CC[N@+]2(C)CCC(=O)OCCCCCOC(=O)CC[N@@+]2(C)CCc3cc(OC)c(OC)cc3[C@H]2Cc2ccc(OC)c(OC)c2)cc1OC` [Cisatracurium besylate] gave a B-score binding assay in assay [1] (setting [6]) of -0.016. This compound also registered a B-score functional assay in assay [2] (setting [7]) of 0.628. Moreover, the Ranking score in assay [2] (setting [8]) amounted to 764.984.

For the compound `Cc1c(Cl)cccc1Nc1ncccc1C(=O)O.NCCCC[C@H](N)C(=O)O` [Clonixin Lysinate], the B-score binding assay in assay [1] came out at 0. For the same compound, in assay [2], the B-score functional assay is -1.707 and the Ranking score was 317.248.

The compound `CCN(CC)CCOC(=O)C1(c2ccc([N+](=O)[O-])cc2)CCCC1.Cl` [Nitrocaramiphen hydrochloride] showed a B-score binding assay in assay [1] (setting [3]) of 0.18. Besides, in assay [2] (setting [4]), the B-score functional assay was found to be 0.881. In addition, the Ranking score in assay [2] (setting [5]) is listed as 904.838.

`COc1ccc(NS(=O)(=O)c2ccc(N)cc2)nn1` [Sulfamethoxypyridazine] yielded a B-score binding assay in assay [1] (setting [3]) of 1.584. In assay [2] (setting [4]), this compound displayed a B-score functional assay of 0.331. Also, the Ranking score in assay [2] (setting [5]) is recorded as 989.975.

Consider `CN(C)CCC=C1c2ccccc2C=Cc2ccccc21` [Cyclobenzaprine hydrochloride], for which the B-score binding assay in assay [1] (setting [6]) amounted to 0.264. Also, the B-score functional assay in assay [2] (setting [7]) is -0.009. This compound registered a Ranking score in assay [2] (setting [8]) of 718.919.

Compound `CN1[C@@H]2CC[C@H]1C[C@@H](OC1c3ccccc3CCc3ccccc31)C2.O=C(O)CC(O)(CC(=O)O)C(=O)O` [Deptropine citrate] came in with a B-score binding assay in assay [1] (setting [3]) of 0.633. In addition, the B-score functional assay in assay [2] (setting [4]) is 0.947. For the same compound, the Ranking score in assay [2] (setting [5]) was determined as 1000.12.

As for `Cl.Nc1c(Br)cc(Br)cc1CNC1CCC(O)CC1` (stereo not drawn) [Ambroxol hydrochloride], in assay [1] (setting [3]), the B-score binding assay came out at 1.513. The same compound had a B-score functional assay in assay [2] (setting [4]) of 0.006. Moreover, in assay [2] (setting [5]), the Ranking score stood at 860.528.

Take `CC1NC(=O)NC1=O` (stereo not drawn) [Methylhydantoin-5-(L)]: the B-score binding assay in assay [1] (setting [6]) is -0.07. In assay [2] (setting [7]), this compound yielded a B-score functional assay of 0.737. The compound also showed a Ranking score in assay [2] (setting [8]) of 746.749.

`CCN1CCCC1CNC(=O)c1cc(S(=O)(=O)CC)c(N)cc1OC` (stereo not drawn) [Amisulpride] displayed a B-score binding assay in assay [1] (setting [3]) of 0.863. This compound yielded a B-score functional assay in assay [2] (setting [4]) of 0.107. In addition, in assay [2] (setting [5]), the Ranking score turned out to be 873.097.
